Measured values published in patent publication US20240423988A1, “Improvement of Tumor Immunogenicity by Means of Splicing-Controlling Compound” (Kyoto University, priority 2021, published 2024).

B1: IFN-γ: interferon-γ, major inducer of MHC class I components (protein, UniProt P01579 24-161, looked up)
Interferon gamma: QDPYVKEAENLKKYFNAGHSDVADNGTLFLGILKNWKEESDRKIMQSQIVSFYFKLFKNFKDDQSIQKSVETIKEDMNVKFFNSNKKKRDDFEKLTNYSVTDLNVQRKAIHELIQVMAELSPAAKTGKRKRSQMLFRG

Tests used:
[1] = system: various murine cancer cell lines (LLC, Pan02, WEHI3, CT26, EG7, B16, MC38); experiment: RNA-seq analysis of splice-neoantigen producing events in various murine cancer cell lines; type: cell-based
Description: [FIG. 5-2] Continuation of FIG. 5. D and E: RT-PCR analysis for splice-neoantigen coding forms (splice-NA forms) in MC38 cells treated with 10 µM Compound 1 or vehicle control (0.1% DMSO) for 6 hours. Actb served as a loading control. * represents p<0.05, ** represents p<0.01, and *** represents p<0.001. F: Splice-neoantigen producing rates calculated from RNA-seq data (n=3 biological replicates) are indicated as the APSI (Compound 1-DMSO). All data are shown as the mean±SEM. All experiments were performed at least twice. Statistical significance was determined using unpaired Student's t-test for (B) and (E).
Then, whether the Compound 1-induced splice-neoantigens are shared across cancer type was examined using murine lung carcinoma LLC, pancreatic ductal adenocarcinoma Pan02, leukemia WEHI3, colorectal adenocarcinoma CT26, lymphoma EG7, and skin melanoma B16 cells.
The effects of Compound 2 on RNA splicing events (splicing alterations) producing the aforementioned six splice-neoantigens in various murine cancer cell lines were investigated through RNA-Seq analysis in the same manner as in FIG. 5-2F, except that Compound 1 was replaced with Compound 2 (FIG. 8).

[2] = system: tumor cells; conditions: cited from earlier work
[3] = system: CD8^+ T cells; experiment: IFN-γ ELISpot assay; type: cell-based; conditions: splenocytes of vaccinated mice co-cultured with peptide-pulsed BMDCs
Description: The 22 splice-neoantigen candidates and a melanoma antigen peptide, tyrosinase-related protein 2 (TRP2) 180-188, serving as a positive control, were synthesized. […] mice were vaccinated twice with the synthesized peptides in the presence of Poly(I:C) as an adjuvant. Then, splenocytes were prepared from the vaccinated mice and co-cultured with peptide-pulsed bone marrow-derived dendritic cells (BMDCs) for 24 hours, and the activation of CD8^+ T cells was evaluated using an IFN-γ ELISpot assay (FIG. 5-1A).
Eight-week-old female C57BL/6N mice were subcutaneously injected with 100 μg of synthesized peptides (Genscript Japan) and 50 μg of poly(I:C) formulated in PBS (5 peptides/mouse) on days 0 and 7. H2-K^b TRP-2180-188 peptide (MBL International, Woburn, MA) was used as a positive control. Mice were sacrificed 12 days after the initial injection, and splenocytes were isolated. As stimulators, bone marrow-derived dendritic cells (BMDCs) were generated as described previously, with some modifications. Briefly, bone marrow cells were isolated from femurs of the 8-week-old female C57BL/6N mice through centrifugation on day 2. Cells were passed through a 70-um cell strainer and seeded in 10-cm petri dishes with RPMI1640 containing 10% FBS, 100 U/mL P/S, 2 mM L-glutamine, 50 μM 2-ME, and 20 ng/ml Gm-csf (Peprotech, Rocky Hill, NJ). Culture was maintained by replacing half of the medium every 2 or 3 days. On day 12, most of the nonadherent cells had acquired typical dendritic morphology, and these cells were pulsed with peptides (2 μg/ml) for 2 hours at 37° C. ELISpot assay was performed using a Mouse IFN-γ ELISpot BASIC kit (Mabtech AB, Nacka Strand, Sweden) as per the manufacturer's instructions. Freshly isolated splenocytes (5× 10^5 cells) were co-incubated with peptide-pulsed BMDCs (4×10^4 cells) overnight at 37° C. under 5% CO2 conditions in an ELISpot PVDF white plate coated with anti-IFN-γ antibody (clone AN18). Then, IFN-γ secretion was detected using a […] (clone R^4-6A2) and a BCIP/NBT-plus substrate. After leaving the plate to dry, the spot number was counted using a dissection microscope. Spot images were acquired using an ImmunoSpot S6 Ultimate Analyzer (Cellular Technology Limited, Cleveland, OH).

[4] = system: MC38 cells; experiment: Co-culture assay for tumor-killing activity, peptide-pulsed target cells; type: cell-based, murine; conditions: for tumor-killing responses, individual epitopes: MC38 pulsed with individual peptide, hexavalent peptide-reactive effector cells
Source text: [FIG. 6-1] FIG. 6. Hexavalent vaccination of inducible splice-neoepitopes promotes Compound 1-induced cancer immune responses. A: A schema for the cancer-killing assay. B and C: Representative flow cytometric images showing tumor-killing activity mediated by antigen-elicited effector cells (B) and their quantitative data of annexin V^+/CFSE^+ frequency (C) are indicated (n=3/group). Hexavalent (Kifc1^−, Nf1^−, Acbd4^−, Rfx7^−, Qpct1^−, and Nup153-derived) peptides or an irrelevant Trp2180-188 peptide was used to elicit antigen-reactive effector cells. CFSE-labeled MC38 cells were stimulated with either 0.1% DMSO or hexavalent peptides for 2 hours and then co-cultured with effector cells for 24 hours. Annexin V was used for monitoring early and late apoptotic cell frequencies. *** represents p<0.001. D: For the nontargeting control (NC) or B2M KO clone (n=3/group), annexin V^+/CFSE^+ frequencies in the same experimental condition as (C) are shown. ** represents p<0.01.
[FIG. 7] A: In vitro tumor-killing activity mediated by individual splice-neoantigens. Quantitative data of annexin V^+/CFSE^+ frequencies are shown (n=3/group). CFSE-labeled MC38 cells, with or without IFN-pretreatment, were further stimulated with either 0.1% DMSO, hexavalent peptides, or individual peptides for 2 hours, and then co-cultured with hexavalent peptide-reactive effector cells for 24 hours. Data are shown as the mean±SEM. Experiments were performed at least twice. B: Tumor suppressive effect by hexavalent or individual splice-neoantigen vaccination. Tumor volumes of mice on day 23 are shown. Mice were subcutaneously vaccinated with 100 μg of peptide and 50 μg of Poly(I:C) on days 11 and 18. In groups indicated by (−), 5% DMSO was injected instead of peptide. Compound 1 ([…]) or vehicle control (0.1% DMSO) was intratumorally given once daily. Data are shown as the mean±SEM (n=7/group). Experiments were performed once.
Splenocytes were prepared from mice vaccinated with either hexavalent splice-neoantigens or an irrelevant Tpr2180-188 antigen, and then further stimulated with BMDCs pulsed with the same antigen(s) in the presence of IL-2. Tumor-killing activity was quantified based on the frequency of Annexin V^+/CFSE^+24 hours after co-culture with antigen(s)-elicited effector cells and CFSE-prelabeled target cells. […] As a result, this tumor-killing activity was absent for the B2m KO MC38 cells (FIG. 6-1D).
Splenocytes were prepared from peptide(s)-vaccinated mice inoculated with Poly(I:C) on day 14, as described in the section of “ELISpot assay”. To further elicit antigen-specific CD8^+ T cells, freshly isolated splenocytes were co-cultured with peptide(s)-pulsed bone marrow-derived dendritic cells (BMDCs) in the presence of 10 ng/ml IL-2 (Peprotech) for another 7 days. Culture was maintained by replacing half of the medium every 2 or 3 days. Splenocytes stimulated with BMDCs, as effector cells, were then co-cultured with target cells at an effector target ratio of 5:1 for 24 hours to examine their lytic activity. For the preparation of target cells, in the previous day of co-culture with effector cells, cells were labeled with […] carboxyfluorescein diacetate succinimidyl ester (CFSE; Dojindo) for 10 minutes, and incubated with FBS for additional 10 minutes to stop the labeling reaction. After washing with medium twice, cells were cultured overnight in the presence of 10 ng/ml IFN-γ. The next day, target cells were pulsed with 10 ng/ml peptide(s) for 2 hours prior to co-culture or treated with Compound 1 in the presence of effector cells. After 24 hours of co-culture, cells were stained with annexin V (Biolegend) in an annexin V binding buffer for 15 minutes and subjected to flow cytometry analysis. Effector cell-mediated killing activity was calculated from the frequencies of annexin V^+/CFSEt.

[5] = system: splenocytes (CD8^+ and CD4^+ T cells); experiment: Ex vivo splenocyte culture assay (antigen-independent T cell activation); type: cell-based, mice; conditions: 24 hours, flow cytometry
[6] = system: MC38 cells; experiment: IFN-γ signaling and expression of MHC class I components and PD-L1 in MC38 cells; type: cell-based, murine
Source text: MHC class I expressed in cancer cells is critical for neoantigen presentation, which is indispensable for CD8^+ T cell-dependent immune surveillance and tumor killing. To investigate whether Compound 1 modulates the neoantigen presentation pathway, first, the effects of Compound 1 on IFN-γ signaling and the expression of MHC class I components, including […] (B2M) and H2-K^b in MC38 cells, were examined because CD8^+ T cell-secreted IFN-γ is a major inducer of MHC class I components. […] In contrast, any changes in the expression of PD-L1 were not detected in host dendritic cells or macrophages. […] However, these alterations were likely not the functional mechanisms through which Compound 1 exerts its antitumor effects (FIGS. 1-2O and 1-2P), as enhanced antitumor effects of Compound 1 were observed when co-administered with αPD-L1.

Molecule	immunogenicity, IFN-γ ELISpot [3]	tumor-killing responses, individual epitopes [4]	further results
N=C1NC(=O)/C(=C/c2ccc3c(c2)CCO3)S1 [Compound 2]			splicing alterations of the Kifc1 gene producing peptides containing MALSNKAYV ([1]; MC38 and B16): markedly observed; splicing alterations of the Rfx7 gene producing peptides containing SLLLLYLQL ([1]; all the cancer cell lines): markedly observed; production of splice-neoantigens ([1]; various murine cancer cell lines, RNA-Seq): increases the production of splice-neoantigens
NS(=O)(=O)c1ccc(S(=O)(=O)Nc2cccc3c(Cl)c[nH]c23)cc1 [Indisulam]			splicing events and splice-neoantigens in tumor cells [2]: diversely alters splicing events and generates splice-neoantigens
CC(C)Oc1ccc(-c2c[nH]cc2CN(C)CCN)cc1 [MS-023]			splicing events and splice-neoantigens in tumor cells [2]: diversely alters splicing events and generates splice-neoantigens
KQQELFVLL (listed as Mus musculus) [Qpct1, splice-neoantigen peptide derived from altered splicing of Qpctl]	immunogenic		
MALSNKAYV (listed as Mus musculus) [Kifc1, splice-neoantigen peptide derived from altered splicing of Kifc1]	immunogenic	significantly triggered the tumor-killing responses	
RNRSHIFPL (listed as Mus musculus) [Nf1, splice-neoantigen peptide derived from altered splicing of Nf1]	immunogenic	significantly triggered the tumor-killing responses	
SILGFTMV (listed as Mus musculus) [Acbd4, splice-neoantigen peptide derived from altered splicing of Acbd4]	immunogenic	significantly triggered the tumor-killing responses	
SLLLLYLQL (listed as Mus musculus) [Rfx7, splice-neoantigen peptide derived from altered splicing of Rfx7]	immunogenic	significantly triggered the tumor-killing responses	
SQPLPNKIGF (listed as Mus musculus) [Nup153, splice-neoantigen peptide derived from altered splicing of Nup153]	immunogenic	significantly triggered the tumor-killing responses	
Tpr2: melanoma antigen peptide, tyrosinase-related protein 2 (TRP2) 180-188; control antigen (SVYDFFVWL; UniProt P29812 180-188, looked up, fragment) [reference compound]			tumor-killing activity of antigen-elicited effector cells ([4]; MC38 cells presenting six splice-neoepitopes, 24 hours co-culture, Annexin V^+/CFSE^+): did not exhibit any response
concanavalin A [concanavalin A (ConA), reference compound]			CD44^+ and CD69^+ marker expressions in CD8^+ and CD4^+ T cells [5]: promoted
B1			phosphorylation of STAT1 and STAT3 and expression of B2M protein [6]: robustly induced
